Paper PMC11697113, “The Hsc70 system maintains the synaptic SNARE protein SNAP-25 in an assembly-competent state and delays its aggregation [drawing 1]” (The Journal of Biological Chemistry, 2024)

Columns and labels:
V438F Hsc70 = test: ATPase activity of V438F Hsc70; format: biochemical, human; details: V438F Hsc70 2 μM, peptide 200 μM; binding site blocked; three independent experiments (Fig. S3)
Excerpt: Hsp70s consist of an nucleotide-binding domain (NBD) and a substrate-binding domain (SBD). Hsc70 works using an allosteric mechanism whereby substrate binding at the SBD stimulates the ATP hydrolysis rate at the nucleotide-binding domain. The basal ATPase rate of Hsp70 is low, usually about 0.05 ± 0.009 mol Pi/mol protein, and increases when it is stimulated by binding of a peptide to the canonical site in the SBD. We measured the ability of SNAP-25 peptides SNNP and SNCP to stimulate the ATPase rate of Hsc70 (Fig. 5A). SNNP and SNCP binding cause a 1.5-fold increase of the Hsc70 ATPase rate over basal (observed rates upon addition of SNNP and SNCP were 0.089 ± 0.008 and 0.080 ± 0.005, respectively). In order to confirm that peptides are indeed binding at the canonical binding site of Hsc70, we used the V438F mutant that blocks the binding site ([37]). […] The addition of CSPαJ stimulates the ATPase activity of Hsc70 ∼4-fold with and without peptides.
We performed ATPase assays to observe the activity of Hsc70 in the presence of SNAP25 peptides. Hsc70 (2 μM) and peptide (200 μM) were incubated in HMK buffer with 1 mM DTT for 15 min followed by addition of 1 mM ATP and incubation at 37 °C for 1 h. […] Absorbance readings were taken at 620 nm using a BioTek plate reader. […]

Hsc70 = biological target: T1, Hsc70 (Homo sapiens, UniProt P11142); test: Methyl-TROSY NMR of Ile-13CH3-labeled Hsc70 with peptides; format: binding; details: Ile-13CH3 Hsc70 40 μM, 25 °C, 600 MHz, pD 7.4
T1 construct: 6X His-tag (TEV-cleavable) (cleaved yes); made in house; host or cells: E. coli Rosetta (DE3)
Protocol: Figure 5 SNN and SNC peptides interact with the canonical substrate-binding site of Hsc70.A, ATPase activity of Hsc70 (2 μM) in the absence (gray) and presence of 200 μM SNNP (orange) and SNCP (green) peptides. Error bars represent the SDs from three independent experiments. B, binding of SNAP-25 (black), SNNP (orange), LoopP (blue), and SNCP (green) peptides to Hsc70 followed by competition for FITC-p5 peptide using fluorescence anisotropy. Increasing concentrations of the competitors were added to a complex of Hsc70 (5 μM) and FITC-p5 peptide (50 nM). Error bars represent SDs from three independent experiments. C, structure of the canonical substrate-binding site of human HspA1 (PDB 4po2) illustrating the location of Hsc70 residues Ile 403 and Ile 440 in red and green spheres, respectively (N.B., Hsc70 and HspA1 share […] sequence identity). The SBD is shown in gray, bound substrate in cyan sticks, and the side chain of the residue occupying the 0th position in the chaperone (“anchor residue”) in orange ball and sticks. For better visualization of the substrate-binding site, residues 512 to 613, 405 to 408, and 431 were removed in this illustration of the structure. D, the Ile region of the ^1H-^13 C HMQC spectra of Ile-^13CH3-labeled Hsc70 (40 μM) in the absence (black) and in the presence of unlabeled SNNP (orange) and SNCP (green) peptides (200 μM).
To directly observe binding of SNAP-25 peptides to Hsc70, we used methyl-TROSY NMR. We recorded the spectra of complexes between peptides containing the Hsc70 binding sites of SNAP-25 and Hsc70 selectively labeled (^1H,^13 C) at Ile δ1-methyl positions in a ^2H, ^12C background. We had previously found using the Escherichia coli Hsp70, DnaK, that the δ1-methyl chemical shifts of Ile 401 and 438, which contact the central residue of the bound peptide (anchor residue, Fig. 5C), change markedly depending on the identity of the bound anchor residue and the orientation of the peptide backbone with respect to DnaK ([38]). In Hsc70, the side chains of Ile 403 and 440 are similarly arranged with respect to the anchor residue of the bound peptide as Ile 401 and 438 are in DnaK (Fig. 5C) allowing us to use their δ1-methyl chemical shifts to assess directly how the chaperone binds to SNAP-25 peptides SNNP and SNCP. We confirmed the assignment of Ile 403 and Ile 440 chemical shifts by mutating these residues to Leu and collecting methyl-TROSY NMR spectra. The Hsp70 SBD site that binds the anchor residue (termed the 0th pocket) is most frequently occupied by Leu or Ile and less commonly by Val, Pro, or Met ([38], [39], [40], [41]). […]
NMR experiments were carried out at 25 °C on a 600 MHz Bruker Avance III spectrometer equipped with a CryoProbe. Data were processed with NMRPipe and analyzed using ccpNMR Analysis. […]

T1 sequence (P11142 whole entry): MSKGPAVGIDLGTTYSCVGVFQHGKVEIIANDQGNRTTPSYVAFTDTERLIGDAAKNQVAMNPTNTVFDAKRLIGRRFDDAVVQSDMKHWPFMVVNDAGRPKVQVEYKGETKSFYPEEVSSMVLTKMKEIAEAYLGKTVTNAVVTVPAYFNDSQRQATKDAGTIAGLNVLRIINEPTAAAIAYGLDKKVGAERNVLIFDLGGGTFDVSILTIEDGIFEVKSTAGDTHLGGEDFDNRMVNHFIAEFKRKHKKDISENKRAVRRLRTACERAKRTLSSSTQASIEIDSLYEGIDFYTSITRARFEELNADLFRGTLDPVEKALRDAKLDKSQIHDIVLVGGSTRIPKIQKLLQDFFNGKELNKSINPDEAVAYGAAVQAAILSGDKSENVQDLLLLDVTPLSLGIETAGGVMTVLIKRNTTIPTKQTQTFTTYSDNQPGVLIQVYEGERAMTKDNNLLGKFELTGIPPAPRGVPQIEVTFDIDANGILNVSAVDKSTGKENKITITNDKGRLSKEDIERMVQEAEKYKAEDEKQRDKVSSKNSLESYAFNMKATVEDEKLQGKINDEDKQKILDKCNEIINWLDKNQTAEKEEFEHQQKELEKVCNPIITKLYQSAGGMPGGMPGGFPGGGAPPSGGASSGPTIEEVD

For “RRMLQLVEESK [SNNP, peptide … from the SNN domain of SNAP-25]”, the “enhancement of V438F Hsc70 ATPase activity” value (V438F Hsc70) was “did not enhance its ATPase activity”, the “Ile 403 and 440 δ1-methyl signals on complex formation” value (Hsc70) was “indeed shift upon complex formation” and the “Ile 440 and 403 δ1-methyl chemical shift splitting (binding modes)” value (Hsc70) was “split into two resonances each”.
With “EREQMAISGGFIRR [SNCP, peptide … from the LOOP-SNC domain of SNAP-25]” the “enhancement of V438F Hsc70 ATPase activity” value (V438F Hsc70) was “did not enhance its ATPase activity”, the “Ile 403 and 440 δ1-methyl signals on complex formation” value (Hsc70) was “indeed shift upon complex formation” and the “Ile 440 chemical shift splitting (binding modes)” value (Hsc70) was “split into two signals”.
